How the values were obtained:
[1] = C-peptide plasma levels, time-resolved fluoroimmunoassay; format: in vivo, human; conditions: for Increase in pre-dosing morning C-peptide plasma level vs baseline: 4.5 months (visit 3)
Experimental: The sampling of C-peptide in plasma at visits 2 and 4 coincided with the clinical visit and the time between the most recent administration of the trial drug and sampling varied between patients. Thereby, the result of C-peptide concentrations in plasma was less suitable for pharmacokinetic evaluations, but the results contributed to the assessment of treatment compliance. C-peptide plasma levels were measured at baseline, and after 3 and 6 months of treatment. Analysis was performed by the Department of Clinical Chemistry Karolinska University Hospital, Solna using a time-resolved fluoroimmunoassay (AutoDelfia, Wallac Oy, Turku, Finland). […] The plasma levels of C-peptide attained in this study ranged from about 0.2 nM to a maximum of about 6 nM in the high dose group.

[2] = Bioavailability and expected plasma concentration of subcutaneously administered C-peptide; format: in vivo, human; conditions: low dose 500 nmoL/24 h given 4 times daily
Experimental: The dose selection is based on data from previous studies, in which C-peptide has been replaced for 3 months (600 nmoL/24 h) and an effect on albumin excretion and sensory nerve conduction velocity has been observed (Johansson et al., 2000; Ekberg et al., 2003). In order to maintain adequate levels of C-peptide for as many hours of the day as possible, the daily dose was divided into four doses, injected subcutaneously using Disetronic Pen 25, and administered in the morning, at lunch, at dinner, and at bedtime. […] To determine if C-peptide at a higher dose has an optimal effect, a 3 times higher dose (1,500 nmoL/24 h) was also administered.
The low-dose regimen was expected to give a mean physiological plasma concentration of ˜1 nmoL/L during the 24 h period. The high dose regimen was expected to result in concentrations ˜3 times those of the low dose regimen. The actual exposure is described in section above on “C-peptide concentrations”. […] The sampling of C-peptide in plasma at visits 2 and 4 coincided with the clinical visit and the time between the most recent administration of the trial drug and sampling varied between patients. Thereby, the results of C-peptide concentrations in plasma became less suitable for pharmacokinetic evaluations.

C-peptide antibodies = experiment: Antibody formation against C-peptide, ELISA; format: in vivo, human; conditions: baseline and after 3 and 6 months of C-peptide treatment
Source text: C-peptide plasma samples, C-peptide antibodies, and markers for atherosclerosis were processed (centrifuged, etc.) and stored frozen until transport to a central lab. HLA typing samples were shipped to a central lab for processing and storage until analysis. All samples there were labelled uniquely, including information about screening number and sample time.
Samples for the assessment of antibody formation were collected at baseline and at visits 2 and 4. An appropriate enzyme-linked immunoabsorbant assay (ELISA) method was developed and assessments carried out.

[3] = tested on: type 1 diabetes patients with peripheral neuropathy; experiment: Clinical laboratory evaluation: hematology, clinical chemistries, urinalysis; format: in vivo, human; conditions: following the study treatment
Source text: Before starting the study, the investigator supplied the Sponsor with a list of the normal laboratory ranges and units of measurement for the laboratory variables to be determined during the study at the site. All abnormal laboratory (those out of the normal range) values required comments on the CRF, regardless of the clinical significance: • Error—Include improper sample preparation, hemolysis, delayed transit to laboratory, etc. • Not relevant—Abnormality that was not alarming. • Patient condition—Abnormality that was a consequence of the patient's disease, age, etc. • Adverse event—Clinically relevant abnormal value that cannot be explained by the above assessment flags. Adverse Event/Serious Adverse Event CRF was filled in.
Descriptive statistics were used for safety variables.

[4] = tested on: type 1 diabetes patients with peripheral neuropathy; experiment: ECG and vital signs; format: in vivo, human; conditions: for BPd (diastolic blood pressure), change from baseline to 6 months treatment (visit 4), Mean ± SD / BPd (diastolic blood pressure), change from baseline to 6 months treatment (visit 4), Median / BPs (systolic blood pressure), change from baseline to 6 months treatment (visit 4), Mean ± SD / BPs (systolic blood pressure), change from baseline to 6 months treatment (visit 4), Median / Heart rate, change from baseline to 6 months treatment (visit 4), Mean ± SD / Heart rate, change from baseline to 6 months treatment (visit 4), Median / QTc-interval Bazett, change from baseline to 6 months treatment (visit 4), Mean ± SD / QTc-interval Bazett, change from baseline to 6 months treatment (visit 4), Median / QTc-interval Fredericia, change from baseline to 6 months treatment (visit 4), Mean ± SD / QTc-interval Fredericia, change from baseline to 6 months treatment (visit 4), Median: PP data set
Experimental: At the final clinical visit (at 6 months from S/B visit), a safety assessment including physical examination, ECG, vital signs, body weight, and sampling for clinical safety laboratory tests were performed. Furthermore, the metabolic control (HbA1c) was assessed, as well as C-peptide antibodies and C-peptide levels in plasma. All efficacy variables including SCV, SNAP, MCV, MDL, CMAP, QST were performed (two examinations within 2-14 days). E/I ratio and neurological status were also assessed. All used and unused clinical trial medication was returned by the patient and drug accountability was performed by study staff. The patient diary was reviewed including recording of concomitant medication, AEs, and drug accountability. FIG. 1 summarizes the study procedures and assessments conducted at each time point.

[5] = tested on: type 1 diabetes patients with peripheral neuropathy; experiment: Adverse events incl. severe hypoglycemic events and hypoglycemic coma; conditions: for AEs of any severity: Tooth ache: Gastrointestinal Disorders
[6] = Low-dose, ITT data set, Infections and infestations
[7] = Low-dose, PP data set, Infections and infestations
[8] = Low-dose, PP data set, Injury poisoning, procedural complications
[9] = Low-dose, PP data set, Investigations

Q: Which results are given for `CC(C)C[C@H](NC(=O)[C@H](C)NC(=O)[C@H](CC(C)C)NC(=O)[C@@H]1CCCN1C(=O)[C@H](CCC(N)=O)NC(=O)[C@H](CC(C)C)NC(=O)[C@H](CO)NC(=O)CNC(=O)[C@H](C)NC(=O)CNC(=O)[C@@H]1CCCN1C(=O)CNC(=O)CNC(=O)CNC(=O)[C@H](CC(C)C)NC(=O)[C@H](CCC(=O)O)NC(=O)[C@@H](NC(=O)[C@H](CCC(N)=O)NC(=O)CNC(=O)[C@@H](NC(=O)[C@H](CCC(N)=O)NC(=O)[C@H](CC(C)C)NC(=O)[C@H](CC(=O)O)NC(=O)[C@H](CCC(=O)O)NC(=O)[C@H](C)NC(=O)[C@@H](N)CCC(=O)O)C(C)C)C(C)C)C(=O)N[C@@H](CCC(=O)O)C(=O)NCC(=O)N[C@@H](CO)C(=O)N[C@@H](CC(C)C)C(=O)N[C@@H](CCC(N)=O)C(=O)O` [C-peptide, Recombinant human C-peptide]?
A: Increase in pre-dosing morning C-peptide plasma level vs baseline ([1]; High-dose C-peptide, n=4): 0.13 ± 0.083 nmol/L; Increase in pre-dosing morning C-peptide plasma level vs baseline ([1]; Low-dose C-peptide, n=8): 0.045 ± 0.092 nmol/L; Accumulation following repeated C-peptide dosing ([1]; dose ranges of the study, 4.5 months): likely no significant accumulation; level at time molar ([1]; human, plasma, sc, during treatment, maximum in the high dose group, read-out: Plasma levels of C-peptide attained): 0.2 to 6 nM; Expected physiological mean plasma concentration [2]: ~1 nmoL/L; Antibody reactivity to C-peptide (C-peptide antibodies): no or very weak reactivity; Changes in clinical laboratory variables [3]: no significant changes in any of the variables; BPd (diastolic blood pressure), change from baseline to 6 months treatment (visit 4), Mean ± SD ([4]; High-dose C-peptide, n = 39): −2.6 ± 8.0 mm Hg; BPd (diastolic blood pressure), change from baseline to 6 months treatment (visit 4), Median ([4]; High-dose C-peptide, n = 39): −1.0 mm Hg; BPs (systolic blood pressure), change from baseline to 6 months treatment (visit 4), Mean ± SD ([4]; High-dose C-peptide, n = 39): −8.8 ± 10.0 mm Hg; BPs (systolic blood pressure), change from baseline to 6 months treatment (visit 4), Median ([4]; High-dose C-peptide, n = 39): −8.0 mm Hg; Heart rate, change from baseline to 6 months treatment (visit 4), Mean ± SD ([4]; High-dose C-peptide, n = 39): −3.2 ± 10.0 bpm; Heart rate, change from baseline to 6 months treatment (visit 4), Median ([4]; High-dose C-peptide, n = 39): −4.0 bpm; QTc-interval Bazett, change from baseline to 6 months treatment (visit 4), Mean ± SD ([4]; High-dose C-peptide, n = 39): -4.5 ± 20.3 ms; QTc-interval Bazett, change from baseline to 6 months treatment (visit 4), Median ([4]; High-dose C-peptide, n = 39): 0.0 ms; QTc-interval Fredericia, change from baseline to 6 months treatment (visit 4), Mean ± SD ([4]; High-dose C-peptide, n = 39): -0.5 ± 16.2 ms; QTc-interval Fredericia, change from baseline to 6 months treatment (visit 4), Median ([4]; High-dose C-peptide, n = 39): 0.0 ms; Decrease in systolic blood pressure compared to the low-dose C-peptide group ([4]; High-dose C-peptide, p<0.004, not different from placebo): significantly greater decrease; BPd (diastolic blood pressure), change from baseline to 6 months treatment (visit 4), Mean ± SD ([4]; Low-dose C-peptide, n = 53): −2.7 ± 8.2 mm Hg; BPd (diastolic blood pressure), change from baseline to 6 months treatment (visit 4), Median ([4]; Low-dose C-peptide, n = 53): −1.0 mm Hg; BPs (systolic blood pressure), change from baseline to 6 months treatment (visit 4), Mean ± SD ([4]; Low-dose C-peptide, n = 53): −2.1 ± 12.8 mm Hg; BPs (systolic blood pressure), change from baseline to 6 months treatment (visit 4), Median ([4]; Low-dose C-peptide, n = 53): −1.0 mm Hg; Heart rate, change from baseline to 6 months treatment (visit 4), Mean ± SD ([4]; Low-dose C-peptide, n = 53): −0.9 ± 8.2 bpm; Heart rate, change from baseline to 6 months treatment (visit 4), Median ([4]; Low-dose C-peptide, n = 53): −2.0 bpm; QTc-interval Bazett, change from baseline to 6 months treatment (visit 4), Mean ± SD ([4]; Low-dose C-peptide, n = 53): -0.1 ± 17.5 ms; QTc-interval Bazett, change from baseline to 6 months treatment (visit 4), Median ([4]; Low-dose C-peptide, n = 53): 0.0 ms; QTc-interval Fredericia, change from baseline to 6 months treatment (visit 4), Mean ± SD ([4]; Low-dose C-peptide, n = 53): 0.9 ± 14.1 ms; QTc-interval Fredericia, change from baseline to 6 months treatment (visit 4), Median ([4]; Low-dose C-peptide, n = 53): 1.3 ms; Changes in heart rate, blood pressure, and QTc ([4]; any of the three treatment groups, 6 months): nor were there any significant changes; Abnormalities in ECG ([4]; during study medication treatment): no clinically significant abnormalities; AEs of severe intensity (S): Sepsis ([5]; High-dose, ITT data set, Infections and infestations): S (1); AEs of any severity: Tooth ache ([5]; High-dose, PP data set): 3; AEs of any severity: Urinary tract infection ([5]; High-dose, PP data set, Infections and infestations): 1; AEs of any severity: Skin infection ([5]; High-dose, PP data set, Skin and subcutaneous tissue disorders): 2; AEs of moderate intensity (M): Acute HIV infection [5, 6]: M (1); AEs of moderate intensity (M): Borrelia infection [5, 6]: M (1); AEs of moderate intensity (M): Herpes zoster [5, 6]: M (1); AEs of moderate intensity (M): Skin infection ([5]; Low-dose, ITT data set, Skin and subcutaneous tissue disorders): M (1); AEs of any severity: Tooth ache ([5]; Low-dose, PP data set): 2; AEs of any severity: Acute HIV infection [5, 7]: 1; AEs of any severity: Borrelia infection [5, 7]: 1; AEs of any severity: Herpes simplex [5, 7]: 1; AEs of any severity: Herpeszoster [5, 7]: 1; AEs of any severity: Influenza [5, 7]: 1; AEs of any severity: Nasopharyngitis [5, 7]: 31; AEs of any severity: Otitis [5, 7]: 1; AEs of any severity: Pharyngitis [5, 7]: 1; AEs of any severity: Sinusitis [5, 7]: 4; AEs of any severity: Skin infection [5, 7]: 5; AEs of any severity: Tonsilitis [5, 7]: 1; AEs of any severity: Upper respiratory tract infection [5, 7]: 3; AEs of any severity: Urinary tract infection [5, 7]: 3; AEs of any severity: Joint sprain ankle [5, 8]: 1; AEs of any severity: Rib fracture/injury [5, 8]: 1; AEs of any severity: Skin injury [5, 8]: 2; AEs of any severity: Elevated serum creatinine [5, 9]: 1; AEs of any severity: Hepatic enzyme increase [5, 9]: 2; AEs of any severity: Hyperkalaemia [5, 9]: 1; AEs of any severity: Weight increased [5, 9]: 1; Deaths ([5]; during the study): No deaths
